This note sets out measurements from patent US10028992B2, “Methods of treating muscular dystrophy” (BOARD OF REGENTS OF THE NEVADA SYSTEM OF HIGHER EDUCATION …, priority 2012, dated 2018).

Molecules are shown by their SMILES.

For this experiment, the system named is α7 integrin promoter. Put plainly: muscle cell-based assay: α7βgal+/− myoblasts/myotubes, LacZ reporter, β-galactosidase cleavage of FDG. On the set-up: species or system mouse. The conditions noted are these: Myotubes; for Results in a α7+/− β-galactosidase assay, Myotubes, 0.5 uM: compound at 0.5 uM; for Results in a α7+/− β-galactosidase assay, Myotubes, 1 uM: compound at 1 uM; for Results in a α7+/− β-galactosidase assay, Myotubes, 5 uM: compound at 5 uM; for Results in a α7+/− β-galactosidase assay, Myotubes, 10 uM: compound at 10 uM; for Results in a α7+/− β-galactosidase assay, Myotubes, 20 uM: compound at 20 uM; for Results in a α7+/− β-galactosidase assay, Myotubes, 40 uM: compound at 40 uM. A digest of the protocol:
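Fluorescein generated from FDG by β-galactosidase reports α7 integrin promoter activity in differentiated myoblasts from α7+/− LacZ knock-in pups. Screening hits then went to dose-response, western blotting and a myostatin counterscreen.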

As to `O=C1Nc2ccccc2/C1=C\c1cccn1-c1ccc(OC(F)(F)F)cc1` [drawing 445], the “Results in a α7+/− β-galactosidase assay, Myotubes, 0.5 uM” value (from here on “Results … 0.5 uM”) is reported as 0.0705; the “Results in a α7+/− β-galactosidase assay, Myotubes, 1 uM” value (from here on “Results … 1 uM”) came to 0.06007; the “Results in a α7+/− β-galactosidase assay, Myotubes, 5 uM” value (“Results … Myotubes, 5 uM” below) came to 0.1996; the “Results in a α7+/− β-galactosidase assay, Myotubes, 10 uM” value (shortened to “Results … 10 uM”) is on record as −0.05189. In addition, the “Results in a α7+/− β-galactosidase assay, Myotubes, 20 uM” value (from here on “Results … 20 uM”) is −0.1444 and the “Results in a α7+/− β-galactosidase assay, Myotubes, 40 uM” value (“Results … 40 uM” for short) is given as −0.2888.
As for `NS(=O)(=O)c1ccc(NC(=O)CN2CCc3ccccc32)cc1` [drawing 446], the “Results … 0.5 uM” value is reported as −0.03601; the “Results … 1 uM” value is on record as −0.07498; the “Results … Myotubes, 5 uM” value came out at 0.1476; the “Results … 10 uM” value is −0.1666. Also, the “Results … 20 uM” value was −0.05843 and the “Results … 40 uM” value is −0.06764.
Consider `CC(=O)C1=C(C)Nc2ncnn2C1c1ccc(C)cc1` (stereo not drawn) [drawing 447], for which the “Results … 0.5 uM” value is 0.06012; the “Results … 1 uM” value is reported as −0.01856; the “Results … Myotubes, 5 uM” value is reported as 0.152; the “Results … 10 uM” value is −0.155. Besides, the “Results … 20 uM” value is −0.1763 and the “Results … 40 uM” value is listed as −0.08699.
Turning to `COc1ccc(OC)c(S(=O)(=O)Nc2c(NC3CCCCC3)c3ccccc3oc2=O)c1` [drawing 448], the “Results … 0.5 uM” value amounted to 0.01269; the “Results … 1 uM” value is on record as −0.0336; the “Results … Myotubes, 5 uM” value was 0.04486; the “Results … 10 uM” value was −0.2638. Besides, the “Results … 20 uM” value is −0.05892 and the “Results … 40 uM” value is −0.2063.
On to `CC(=O)Nc1ccc(NC(=O)C/C(C)=N/NC(=O)COc2cc(C)c(Br)cc2Br)cc1` [drawing 449], for which the “Results … 0.5 uM” value is recorded as −0.08286; the “Results … 1 uM” value is reported as −0.1235; the “Results … Myotubes, 5 uM” value was −0.2507; the “Results … 10 uM” value is −0.3124. Further, the “Results … 20 uM” value is −0.1128 and the “Results … 40 uM” value is recorded as −0.2976.
With `Cc1cccc(Cn2cnc3c(nnn3Cc3ccc(Cl)cc3)c2=O)c1` [drawing 450], the “Results … 0.5 uM” value is on record as 0.04908; the “Results … 1 uM” value is −0.01328; the “Results … Myotubes, 5 uM” value was −0.09823; the “Results … 10 uM” value is reported as −0.3107. The “Results … 20 uM” value is −0.1707 and the “Results … 40 uM” value was −0.1775.
Turning to `CCOc1ccc(Br)cc1S(=O)(=O)Nc1ccc(C(=O)Nc2ccccc2OC)cc1` [drawing 451], the “Results … 0.5 uM” value is 0.1091; the “Results … 1 uM” value is reported as 0.02499; the “Results … Myotubes, 5 uM” value is listed as −0.02123; the “Results … 10 uM” value is reported as −0.1229. Further, the “Results … 20 uM” value is listed as −0.2419 and the “Results … 40 uM” value is −0.2407.
Take `O=C(NCc1ccccc1)c1csc(-c2cccnc2)n1` [drawing 452]: the “Results … 0.5 uM” value is −0.05273; the “Results … 1 uM” value is −0.1614; the “Results … Myotubes, 5 uM” value is reported as 0.1395; the “Results … 10 uM” value is 0.1693. For the same compound, the “Results … 20 uM” value is reported as 0.05975 and the “Results … 40 uM” value was −0.1073.
